BindingDB's records for doi:10.1021/acs.biochem.5b00822 (The University of Kansas Medical Center, 2015)
“And” between values parts separate entries of the source, which are not always exact repeats. Equal values may be shown once.

How the values were obtained:
Conditions in all cases: 25 °C
[1] = biological target: T1, Phosphoenolpyruvate carboxykinase, cytosolic [GTP] (Rattus norvegicus, UniProt P07379); experiment: PEPCK Assay (OAA to PEP-allosteric)
T1 sequence (P07379 whole entry): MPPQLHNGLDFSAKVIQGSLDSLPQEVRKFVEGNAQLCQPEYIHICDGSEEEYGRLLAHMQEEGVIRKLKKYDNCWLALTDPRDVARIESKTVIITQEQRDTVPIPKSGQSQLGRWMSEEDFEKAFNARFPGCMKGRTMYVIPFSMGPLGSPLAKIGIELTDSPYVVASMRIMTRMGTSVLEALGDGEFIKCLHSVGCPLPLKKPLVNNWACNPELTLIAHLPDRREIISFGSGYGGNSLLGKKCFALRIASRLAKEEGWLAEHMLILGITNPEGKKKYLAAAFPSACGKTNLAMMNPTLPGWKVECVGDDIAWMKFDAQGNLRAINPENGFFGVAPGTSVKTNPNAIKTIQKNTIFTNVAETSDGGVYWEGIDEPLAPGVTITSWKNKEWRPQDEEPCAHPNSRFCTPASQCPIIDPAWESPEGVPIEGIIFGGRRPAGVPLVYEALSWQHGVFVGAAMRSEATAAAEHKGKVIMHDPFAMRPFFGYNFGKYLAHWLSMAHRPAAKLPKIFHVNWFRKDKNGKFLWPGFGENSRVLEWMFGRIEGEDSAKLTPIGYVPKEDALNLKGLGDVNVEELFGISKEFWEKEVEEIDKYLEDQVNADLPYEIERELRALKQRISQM
Method: (§1) Allosteric binding site. The activity of PEPCK in the direction from OAA to PEP was assayed with 50 mM HEPES (pH 7.5), 10 mM DTT, 4 mM MgCl2, 0.5 mM GTP, 1 mM ADP, 187.5 μM NADH, 45 units of LDH, 50 μg of PK, 0.2 mM MnCl2, and (∼1−2 μg) of PEPCK. The assay mixture was incubated for 5 min at 25 °C and the reaction started with the addition of OAA to a final concentration of 350 μM. A second reaction without PEPCK was run simultaneously to account for the spontaneous decarboxylation of OAA. Inhibition assays with MPA were conducted under both variable OAA and variable GTP concentrations. When the GTP concentration was varied, MgCl2 concentrations were also varied to keep a constant 4:1 metal:nucleotide ratio.

[2] = biological target: T1, Phosphoenolpyruvate carboxykinase, cytosolic [GTP]; experiment: PEPCK Assay (OAA to PEP)
Method: as §1, with “OAA/PEP” for “Allosteric”

[3] = biological target: T1, Phosphoenolpyruvate carboxykinase, cytosolic [GTP]; experiment: PEPCK Assay (PEP to OAA-allosteric)
Method: (§2) Allosteric binding site. When the enzyme was assayed in the direction of PEP →OAA, the standard reaction mixture contained 50 mM HEPES (pH 7.5), 2mMMnCl2, 10mMDTT, 0.5mMGDP, 2mMPEP, 187.5 μM NADH, 50 mM KHCO3, and 11 units of MDH. The reaction proceeded at 25 °C and was started with the addition of PEPCK (∼1−2 μg). Mutants were assayed as previously described with the exception that ~30 μg of enzyme was used to initiate the assay.14 Inhibition assays with MPA were conducted with varying concentrations of PEP with a fixed GDP concentration of 500 or 25 μM. Inhibition assays against GDP were conducted at a fixed concentration of PEP of 2 or 5 mM.

[4] = biological target: T1, Phosphoenolpyruvate carboxykinase, cytosolic [GTP]; experiment: PEPCK Assay (PEP to OAA)
Method: as §2, with “OAA/PEP” for “Allosteric”

SMILES: O=C(O)c1ncccc1S [3-Mercaptopicolinic acid (MPA)]
- Ki [1]: 121 µM
- Ki [2]: 45 µM
- Ki [3]: 180 µM and 83 µM
- Ki [4]: 83 µM and 37 µM
